Data published in article PMC11903733 (Frontiers in Pharmacology, 2025).

What was measured:
MV-4-11 cells = assay: MTS cell proliferation assay; format: cell-based; conditions: Homo sapiens, MV4-11, LSD1-addicted MV-4-11 leukemia cells, 72 h
Procedure: (§1) The myeloid leukemia cell lines MV-4-11, MOLT-4, MOLM-16, HL-60, and the human B lymphocyte cell line […] were purchased from the American Type Culture Collection (ATCC, Manassas, VA, United States). The myeloid leukemia cell line HAL-01 was obtained from the Deutsche Sammlung von Mikroorganismen und Zellkulturen GmbH (DSMZ, Braunschweig, Germany). All cells were cultured in IMDM or RPMI -1640 medium supplemented with 10% FBS, 100 U/mL penicillin, and 100 μg/mL streptomycin. The cells were maintained in a humidified incubator with an atmosphere of 5% CO2 at 37°C.
(§2) The in vitro anti-proliferative activity of the compounds was determined using the CellTiter 96® AQueous NonRadioactive Cell Proliferation Assay Kit (Promega, Madison, United States) as previously described ([Ji et al., 2017]). In brief, 5–10 × 10^3 cells and 180 μL of medium were first seeded into each well of a 96-well plate. Subsequently, the cells were exposed to either 0.2% Dimethyl sulfoxide (DMSO, Aladdin Reagent, Shanghai, China) or a serial dilution of the compounds, prepared from a 10 mM stock solution in DMSO, with the final concentration of DMSO being 0.2% for 72 h. 20 μL of MTS reagent was added to each well, and the culture was incubated in the dark at 37°C for 4 h. Finally, the optical density (OD) was then recorded at 490 nm and 690 nm using a microplate reader from Molecular Devices. The proliferation inhibition rate was calculated according to the following formula: inhibition ratio = (OD of DMSO treated wells - OD of compound treated wells)/(OD of DMSO treated wells - OD of blank wells) × 100%. The IC50 values of the compounds inhibiting cell proliferation were calculated using GraphPad Prism 10 (GraphPad Software Inc., San Diego, CA).

RPMI-8226 cells = assay: MTS cell proliferation assay; format: cell-based; conditions: Homo sapiens, LSD1-non-sensitive RPMI-8226 cells, 72 h
Procedure: as §1, §2

`O=S(=O)(c1ccc(C(O)CO)c(C(F)(F)F)c1)N1CCc2cc(C3CC3NCC3CCNCC3)ccc21` (centres unmarked) [LTM-1] was tested, and the IC50 (MV-4-11 cells) was 0.16 ± 0.01 µM and the IC50 (RPMI-8226 cells) was greater than 100 µM.
